Results published in patent publication US7666646B2, “Crystal structure of human Pim-1 kinase protein complexes and binding pockets thereof, and uses thereof in drug design” (priority 2003, dated 2010).
pIC50: −log10 of the molar value. Read-outs that look alike come from different tables or passages of the source.

Tests used:
Pim-1 = Pim-1 (Homo sapiens, UniProt P11309); assay: Coupled-enzyme kinase assay with S6 peptide substrate (Pim-1 IC50 determination); type: biochemical
Description: The assay was carried out in a total volume of 100 μl in 0.1 M HEPES buffer (pH 7.6) containing 10 mM MgCl2, 2.5 mM phosphoenolpyruvate, 0.2 mM NADH, 30 μg/ml pyruvate kinase, 10 μg/ml lactate dehydrogenase (Roche Diagnostics Corp., Indianapolis, Ind.) and 2 mM DTT in a 96-well plate, and read at 340 nm at 30° C. on a Spectramax spectrophotometer (Molecular Devices, Sunnyvale, Calif.). […] The reaction was started by addition of ATP after 10 minutes pre-incubation of the reaction mixture at 30° C. […] Kinetic analysis was performed by non-linear regression fitting using the program Prism (GraphPad software, San Diego, Calif., USA).

Casein kinase 2 (CK2) = Casein kinase 2 (CK2) (Homo sapiens, UniProt P68400); conditions: Davies et al., supra; read-out: IC50 / potency of Casein kinase 2 inhibition; cited from earlier work
Sequence of Casein kinase 2 (CK2) (P68400 whole entry): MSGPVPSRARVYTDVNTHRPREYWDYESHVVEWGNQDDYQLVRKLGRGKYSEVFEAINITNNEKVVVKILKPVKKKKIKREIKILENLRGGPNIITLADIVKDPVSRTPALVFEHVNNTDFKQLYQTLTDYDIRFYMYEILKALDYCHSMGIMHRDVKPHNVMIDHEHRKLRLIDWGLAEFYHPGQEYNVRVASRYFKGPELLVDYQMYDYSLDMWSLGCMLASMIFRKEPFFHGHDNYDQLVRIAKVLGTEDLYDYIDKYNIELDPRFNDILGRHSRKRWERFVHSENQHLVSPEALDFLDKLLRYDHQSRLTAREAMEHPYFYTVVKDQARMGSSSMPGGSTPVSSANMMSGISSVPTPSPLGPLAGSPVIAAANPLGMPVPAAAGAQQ

PKA = PKA (Homo sapiens, UniProt P17612); conditions: in the presence of 50 μM LY294002; cited from earlier work
PI3K = conditions: cited from earlier work

Sequence of Pim-1 (P11309 whole entry): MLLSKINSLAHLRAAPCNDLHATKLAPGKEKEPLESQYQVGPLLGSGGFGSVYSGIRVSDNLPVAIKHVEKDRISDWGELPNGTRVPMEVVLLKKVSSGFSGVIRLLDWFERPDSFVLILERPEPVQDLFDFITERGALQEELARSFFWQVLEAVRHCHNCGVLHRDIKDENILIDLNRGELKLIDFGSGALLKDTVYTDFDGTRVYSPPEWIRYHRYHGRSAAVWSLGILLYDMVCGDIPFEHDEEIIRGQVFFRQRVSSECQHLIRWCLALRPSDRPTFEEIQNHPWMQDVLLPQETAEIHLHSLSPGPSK

In the case of `COC(=O)[C@]1(O)C[C@@H]2O[C@@]1(C)n1c3ccccc3c3c4c(c5c6ccccc6n2c5c31)C(=O)NC4` [K-252a], the pIC50 (Pim-1) was 6.82 and the “potency of Pim-1 inhibition” value (Pim-1; panel of kinase inhibitors, refers to Table 1) was “sub-micromolar”.
For `O=c1cc(N2CCOCC2)oc2c(-c3ccccc3)cccc12` [LY294002, 2-(4-morpholinyl)-8-phenyl-4H-1-benzopyran-4-one], the pIC50 (Casein kinase 2 (CK2)) is listed as 5.16, the “reduction of PKA activity” value (PKA) is listed as 9% and the pIC50 (PI3K; Davies et al., Biochem. J. 351: 95-105 (2000), read-out: potency of PI3K inhibition reported by Davies et al.) is listed as […]. For the same molecule, the pIC50 (PI3K; Mizuno et al., FEBS Lett. 330: 114-116 (1993) as cited, read-out: IC50 for PI3K, as originally described) was […].
